Patent publication US11654198B2, “Application of combination of polyethylene glycol and local anesthetic in non-narcotic analgesia” (JENKEM TECHNOLOGY CO., LTD. (TIANJIN), priority 2016, dated 2023)

Legend:
SD rats [1] = assay: Hot plate paw withdrawal time, rat plantar incision model (Example 31); assay type: in vivo
Protocol: (§1) After SD rats inhale anesthesia (isoflurane), an incision of about 1 cm in length from the proximal end of the pelma to the toe is made: after the skin and fascia are cut, the plantar muscle is picked up with an ophthalmic forceps and cut longitudinally (maintaining the starting and ending point and attachment of muscles); pressing is carried out for hemostasis, physiological saline and test drugs are injected into the muscles of animal's legs, and then the pain threshold detection is performed by the hot plate method. Within 24 hours after the model is successful, the rats develop significant hyperalgesia. Qualified rats are randomly divided into 5 groups, 6 rats in each group, which are labeled as groups G1, G2, G3, G4 and G5, respectively. The plantar subcutaneous injection method for administration is used, and the grouping information of the experimental animals is shown in Table 8.
(§2) Sensory block (hot plate paw withdrawal time): The sensory block of the rat is examined by a hot plate method, and the hot plate is heated to (56±1)° C., and one of the hind paws of the rat is placed on the hot plate, the other hind paw is in the laboratory room temperature condition, and the tested paw withdrawal time is observed and recorded. The average value of two to three times measured is recorded as a pain threshold. In order to avoid the damage of the experimental animal body, if the rat has no paw withdrawal in the hot plate experiment for more than 15 s, the paws should be removed from the hot plate, and the experimental result is recorded as 15 s. The time point for determining the paw withdrawal time of the hot plate is before administration, and 0.5 h, 1 h, 2 h, 4 h, 6 h, 8 h, 12 h, and 24 h after administration.

SD rats [2] = assay: Motor block four-level score, rat plantar incision model (Example 31); assay type: in vivo; set-up: key to motor function score: 1 = normal paw movement to 4 = complete loss of movement with gait defect; settings: for motor function score: bupivacaine 8, conjugate 10/11/12 32/24/48 mg/kg
Protocol: as §1
Motor block (four-level score): The exercise condition of each group of rats is evaluated by the motor block four-level scoring method. The scoring criteria are: paws can be dorsiflexed, stretched, valgus and other normal exercises, scored by 1 point; paws can be dorsiflexed, bendable or after the adduction, although the paws can be stretched, the stretching ability is weakened, scored by 2 points; the paws can perform dorsiflexion, but no longer has the ability to stretch, scored by 3 points; the paws completely lose the ability of dorsiflexion, curling and stretching, and the rats produce a gait defect, scored by 4 points. The time point for measuring the motor block score is before administration, and 0.5 h, 1 h, 2 h, 4 h, 6 h, 8 h, 12 h, and 24 h after administration.

SD rats [3] = assay: Hot plate paw withdrawal time, rat sciatica model, intervertebral disc compression (SNL) (Example 32); assay type: in vivo
From the text: Intervertebral disc compression (SNL): This model is a pathological form that simulates clinical disc herniation. The specific method is to remove the autogenous caudal intervertebral disc tissue (annulus fibrosus and nucleus pulposus) form the rats and place the caudal intervertebral disc tissue between the proximal nerve root of the L5 dorsal root ganglion and the lower vertebral body to directly compress the L5 nerve root, wherein damage to the L5 nerve root or dorsal root ganglion should be avoided during the operation. 3 to 15 days after the model is successful, rats develop significant hyperalgesia, so the administration time we chose is between 3 days and 15 days.
Qualified rats are randomly divided into 5 groups, 6 rats in each group, which are labeled as groups G1, G2, G3, G4 and G5, respectively. Administration by intramuscular injection around sciatic nerve is adopted, and the grouping information of the experimental animals is shown in Table 11.
as §2, with “determining the withdrawal time” for “determining the paw withdrawal time”

SD rats [4] = assay: Sensory block, hot plate paw withdrawal time, non-anesthetic analgesic effect of PEG-bupivacaine conjugate (Example 30); assay type: in vivo, rat; settings: for hot plate paw withdrawal time: conjugate 10/11/12 at 32/24/48 mg/kg (as bupivacaine)
Protocol: Male Sprague-Dawley rats are used in the study, about 230-250 g when accepted, and acclimated for at least 7 days prior to the experiment. Two rats are raised in each cage and fed freely with feed and water. The environmental conditions of the breeding room are 23±2° C., and the relative humidity is 40% to 70%, alternating 12 hours of light and dark. […] The qualified rats are randomly divided into 4 groups, 4 rats in each group, which are labeled as groups G1, G2, G3, and G4, respectively. Administration by direct injection in the sciatic nerve is adopted, and with the rat's back facing up, the drug is injected around the right sciatic nerve trunk between the right hip and the right thigh.
as §2, with “the hot plate. The other hind” for “the hot plate, the other hind”, “s, the rat should be” for “s, the paws should be”, “8 h, 10 h, 12 h,” for “8 h, 12 h,”

[5] = 0 h (after surgery, before administration), bupivacaine 8, conjugate 10/11/12 32/24/48 mg/kg
[6] = 0.5 h after plantar subcutaneous injection, bupivacaine 8, conjugate 10/11/12 32/24/48 mg/kg
[7] = 1 h after plantar subcutaneous injection, bupivacaine 8, conjugate 10/11/12 32/24/48 mg/kg
[8] = 2 h after plantar subcutaneous injection, bupivacaine 8, conjugate 10/11/12 32/24/48 mg/kg
[9] = 4 h after plantar subcutaneous injection, bupivacaine 8, conjugate 10/11/12 32/24/48 mg/kg
[10] = 6 h after plantar subcutaneous injection, bupivacaine 8, conjugate 10/11/12 32/24/48 mg/kg
[11] = 8 h after plantar subcutaneous injection, bupivacaine 8, conjugate 10/11/12 32/24/48 mg/kg
[12] = 12 h after plantar subcutaneous injection, bupivacaine 8, conjugate 10/11/12 32/24/48 mg/kg
[13] = 24 h after plantar subcutaneous injection, bupivacaine 8, conjugate 10/11/12 32/24/48 mg/kg
[14] = base value before surgery, bupivacaine 8, conjugate 10/11/12 32/24/48 mg/kg (as bupivacaine)
[15] = conjugate 10/11/12 at 32/24/48 mg/kg
[16] = 0.5 h after intramuscular injection around sciatic nerve, bupivacaine 8, conjugate 10/11/12 32/24/48 mg/kg
[17] = 1 h after intramuscular injection around sciatic nerve, bupivacaine 8, conjugate 10/11/12 32/24/48 mg/kg
[18] = 2 h after intramuscular injection around sciatic nerve, bupivacaine 8, conjugate 10/11/12 32/24/48 mg/kg
[19] = 4 h after intramuscular injection around sciatic nerve, bupivacaine 8, conjugate 10/11/12 32/24/48 mg/kg
[20] = 6 h after intramuscular injection around sciatic nerve, bupivacaine 8, conjugate 10/11/12 32/24/48 mg/kg
[21] = 8 h after intramuscular injection around sciatic nerve, bupivacaine 8, conjugate 10/11/12 32/24/48 mg/kg
[22] = 12 h after intramuscular injection around sciatic nerve, bupivacaine 8, conjugate 10/11/12 32/24/48 mg/kg
[23] = 24 h after intramuscular injection around sciatic nerve, bupivacaine 8, conjugate 10/11/12 32/24/48 mg/kg
[24] = before surgery, bupivacaine 8, conjugate 10/11/12 32/24/48 mg/kg (as bupivacaine)

## 8-Arm-PEG-Bupivacaine, 20K [bupivacaine conjugate 10]
SD rats [1]; [5]
  hot plate paw withdrawal time: 1.41 s
SD rats [1]; [6]
  hot plate paw withdrawal time: 6.52 s
SD rats [1]; [7]
  hot plate paw withdrawal time: 7.91 s
SD rats [1]; [8]
  hot plate paw withdrawal time: 6.21 s
SD rats [1]; [9]
  hot plate paw withdrawal time: 6.79 s
SD rats [1]; [10]
  hot plate paw withdrawal time: 7.42 s
SD rats [1]; [11]
  hot plate paw withdrawal time: 7.43 s
SD rats [1]; [12]
  hot plate paw withdrawal time: 2.10 s
SD rats [1]; [13]
  hot plate paw withdrawal time: 1.32 s
SD rats [1]; [14]
  hot plate paw withdrawal time: 5.20 s
SD rats [1]; [15]
  time the analgesic effect can reach: 8 h
SD rats [2]; 0 h (before administration)
  motor function score: 1 ± 0
SD rats [2]; 0.5 h
  motor function score: 1 ± 0
SD rats [2]; 1 h
  motor function score: 1.75 ± 0.5
SD rats [2]; 2 h
  motor function score: 1.75 ± 0.5
SD rats [2]; 4 h
  motor function score: 1.75 ± 0.5
SD rats [2]; 6 h
  motor function score: 1.75 ± 0.5
SD rats [2]; 8 h
  motor function score: 1.75 ± 0.5
SD rats [2]; 12 h
  motor function score: 1 ± 0
SD rats [2]; 24 h
  motor function score: 1 ± 0
SD rats [2]; [15]
  effect on motor function of SD rats: does not affect the motor function
SD rats [3]; [5]
  hot plate paw withdrawal time: 2.41 s
SD rats [3]; [16]
  hot plate paw withdrawal time: 6.52 s
SD rats [3]; [17]
  hot plate paw withdrawal time: 10.12 s
SD rats [3]; [18]
  hot plate paw withdrawal time: 11.43 s
SD rats [3]; [19]
  hot plate paw withdrawal time: 9.83 s
SD rats [3]; [20]
  hot plate paw withdrawal time: 8.10 s
SD rats [3]; [21]
  hot plate paw withdrawal time: 6.91 s
SD rats [3]; [22]
  hot plate paw withdrawal time: 1.96 s
SD rats [3]; [23]
  hot plate paw withdrawal time: 2.18 s
SD rats [3]; [24]
  hot plate paw withdrawal time: 4.98 s
SD rats [3]; [15]
  time the analgesic effect can reach: 8 h
SD rats [4]; 0.5 h after direct injection around sciatic nerve
  hot plate paw withdrawal time: 11.85 s
SD rats [4]; 2 h after direct injection around sciatic nerve
  hot plate paw withdrawal time: 8.91 s
SD rats [4]; 4 h after direct injection around sciatic nerve
  hot plate paw withdrawal time: 10.74 s
SD rats [4]; 6 h after direct injection around sciatic nerve
  hot plate paw withdrawal time: 11.92 s
SD rats [4]; 8 h after direct injection around sciatic nerve
  hot plate paw withdrawal time: 8.49 s
SD rats [4]; 10 h after direct injection around sciatic nerve
  hot plate paw withdrawal time: 6.64 s
SD rats [4]; 12 h after direct injection around sciatic nerve
  hot plate paw withdrawal time: 3.82 s
SD rats [4]; 24 h after direct injection around sciatic nerve
  hot plate paw withdrawal time: 3.81 s
SD rats [4]; conjugate 10 at 32 mg/kg, conjugate 11 at 24 mg/kg
  time the analgesic effect could reach: 8 h
SD rats [4]; l h after direct injection around sciatic nerve
  hot plate paw withdrawal time: 11.98 s

## CCCCN1CCCCC1C(=O)Nc1c(C)cccc1C (centres unmarked) [bupivacaine]
SD rats [1]; [5]
  hot plate paw withdrawal time: 1.02 s
SD rats [1]; [6]
  hot plate paw withdrawal time: 7.21 s
SD rats [1]; [7]
  hot plate paw withdrawal time: 6.91 s
SD rats [1]; [8]
  hot plate paw withdrawal time: 1.30 s
SD rats [1]; [9]
  hot plate paw withdrawal time: 1.51 s
SD rats [1]; [10]
  hot plate paw withdrawal time: 1.32 s
SD rats [1]; [11]
  hot plate paw withdrawal time: 2.41 s
SD rats [1]; [12]
  hot plate paw withdrawal time: 1.41 s
SD rats [1]; [13]
  hot plate paw withdrawal time: 1.45 s
SD rats [1]; [14]
  hot plate paw withdrawal time: 4.70 s
SD rats [2]; 0 h (before administration)
  motor function score: 1 ± 0
SD rats [2]; 0.5 h
  motor function score: 1 ± 0
SD rats [2]; 1 h
  motor function score: 1.75 ± 0.5
SD rats [2]; 2 h
  motor function score: 1.75 ± 0.5
SD rats [2]; 4 h
  motor function score: 1.75 ± 0.5
SD rats [2]; 6 h
  motor function score: 1.75 ± 0.5
SD rats [2]; 8 h
  motor function score: 1.75 ± 0.5
SD rats [2]; 12 h
  motor function score: 1 ± 0
SD rats [2]; 24 h
  motor function score: 1 ± 0
SD rats [3]; [5]
  hot plate paw withdrawal time: 2.28 s
SD rats [3]; [16]
  hot plate paw withdrawal time: 7.39 s
SD rats [3]; [17]
  hot plate paw withdrawal time: 9.22 s
SD rats [3]; [18]
  hot plate paw withdrawal time: 2.81 s
SD rats [3]; [19]
  hot plate paw withdrawal time: 1.89 s
SD rats [3]; [20]
  hot plate paw withdrawal time: 1.78 s
SD rats [3]; [21]
  hot plate paw withdrawal time: 1.95 s
SD rats [3]; [22]
  hot plate paw withdrawal time: 2.43 s
SD rats [3]; [23]
  hot plate paw withdrawal time: 1.72 s
SD rats [3]; [24]
  hot plate paw withdrawal time: 5.40 s
